Assay results: patent US20030224074A1, “Composition for the protection and regeneration of nerve cells containing the extract of Scutellaria Radix” (EUGENBIO INC., priority 2001, published 2003)
“Also recorded” adds a separate entry of the source.

Experiments:
SH-SY5Y = assay: Neurite regeneration in human neuroblastoma SH-SY5Y; format: cell-based; settings: extract 50 μg/ml, retinoic acid 50 μM
Experimental: Retinoic acid and NGF inducing neurite growth were used as positive control groups.
(§1) PC12 cells and SH-SY5Y cells were incubated in DMEM supplemented with 10% FBS. In order to differentiate the cells, NGF or retinoic acid was treated in a serum-free medium.
(§2) Retinoic acid (50 μM) and NGF (50 ng/ml) inducing neurite growth were used as positive controls.

PC12 cells = assay: Neurite regeneration and quantitative comparison of neurites in PC12 cell line; format: cell-based, rat; settings: NGF 50 ng/ml, 3 days
Experimental: as §1, §2
Subsequently, the length of neurites in each group was measured.
2) Differentiation index was scored as follows: no neurite expression (0), the length of expressed neurites was less than the diameter of cell bodies (1), the length of expressed neurites was similar to the diameter of cell bodies (2), the length of expressed neurites was less than two times as long as the diameter of cell bodies (3), and the length of expressed neurites was more than two times as long as the diameter of cell bodies, or the expressed neurites form synapses together with other nerve cells (4). 200 differentiated cells from each microculture well were defined as one unit, and five units were statistically analyzed.

HiB5 cells = assay: Induction of differentiation of HiB5 neuronal stem cells (neurofilament immunostaining, confocal microscope); format: cell-based, white rat
Experimental: A positive control group was treated with bFGF to induce the differentiation into nerve cells.
Cell culture medium was prepared by adding a mixture of 10% FBS (fetal bovine serum), penicillin/streptomycin, glutamine and sodium pyruvate (0.11 g/L) to DMEM. On differentiating at 39 C, another cell culture medium was prepared by adding pyruvate to a serum-free medium (N2, containing DMEM/F12, insulin, transferrin, Putreseine and BSA; Botten Stein & Sato., 1979).
Tissue sections were fixed with 4% paraformaldehyde and cryosected to a thickness of […]. The cryosected tissue sections were stained with nerve cell- or astrocyte-labeled antibody and FITC-labeled secondary antibody before examining under a confocal microscope. In order to stain with nerve cell-labeled antibody, cultured cells were fixed with 4% paraformaldehyde for 20 minutes, permeated in 0.5% NP-40 for 5 minutes, and blocked using 1% BSA solution for 30 minutes. […]
The cultured cells were immunostained with nerve cell-specific labeled molecule, and then neurite growth was observed under a confocal microscope. […] The differentiation degree was measured by double-staining neurites with nerve cell-specific labeled molecule (anti-neurofilament antibody) and FITC-labeled secondary antibody (green), followed by staining cell nuclei with propidium iodide (red).

## CC1=C(/C=C/C(C)=C/C=C/C(C)=C/C(=O)O)C(C)(C)CCC1 [Retinoic acid]
SH-SY5Y
  Average (%) of differentiated cells: 81.59%

## NGF: Nerve Growth Factor, positive control inducing neurite growth in PC12 cells
PC12 cells
  development of neurites: development of neurites

## bFGF: basic fibroblast growth factor, positive control inducing differentiation of HiB5 cells into nerve cells
HiB5 cells; bFGF 20 ng/ml
  cell survival: increased
HiB5 cells; extract 50 μg/ml or bFGF 20 ng/ml
  differentiation into nerve cells: induced the differentiation into nerve cells; also recorded: differentiated into nerve cells
